Measurements published in patent publication US12371430B2, “5-morpholin-4-yl-pyrazolo[4,3-b]pyridine derivatives” (Merck Patent GmbH, priority 2018, dated 2025).

What was measured:
ATR/ATRIP = ATR/ATRIP (Homo sapiens (Human), UniProt Q13535); assay: ATR/ATRIP kinase assay (TR-FRET, p53 Ser15 phosphorylation); assay type: biochemical; conditions: 0.5 μM ATP, 50 nM p53
In short: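 Full-length human ATR/ATRIP co-expressed in mammalian cells (typically 0.3 nM) preincubated with compound 15 min at 22° C, then 50 nM cmyc-p53 and 0.5 μM ATP added for typically 25 min; HEPES pH 8.0 with Mg2+/Mn2+. p53 Ser15 phosphorylation read by HTRF (665/615 ratio); IC50 by nonlinear regression.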

[1] = test system: phosphorylation of Chk1 (Ser 345) in HT29 colon adenocarcinoma cells; assay: pCHK1 cellular assay; assay type: cell-based; conditions: Homo sapiens, HT-29, hydroxyurea 3 mM, 4 h
In short: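 HT29 cells plated ≥20 h, then compound (1 nM–30 μM final) with hydroxyurea (3 mM final) added together for 4 h at 37 °C. After MeOH/Triton fixation-permeabilisation, anti-pChk1 immunostaining plus nuclear stain; nuclear pChk1 imaged by confocal high content reader, reported as % positive nuclei.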

[2] = molecular target: Kv11.1 (hERG) ion channel (Homo sapiens (Human), UniProt Q12809); assay: Kv11.1 (hERG) ion channel activity, whole cell patch clamp in HEK293; assay type: cell-based; conditions: for Ki: heading: hERG Ki, HEK293 cells stably expressing hERG, patch clamp
Chain of Kv11.1 (hERG) ion channel (Q12809 whole entry): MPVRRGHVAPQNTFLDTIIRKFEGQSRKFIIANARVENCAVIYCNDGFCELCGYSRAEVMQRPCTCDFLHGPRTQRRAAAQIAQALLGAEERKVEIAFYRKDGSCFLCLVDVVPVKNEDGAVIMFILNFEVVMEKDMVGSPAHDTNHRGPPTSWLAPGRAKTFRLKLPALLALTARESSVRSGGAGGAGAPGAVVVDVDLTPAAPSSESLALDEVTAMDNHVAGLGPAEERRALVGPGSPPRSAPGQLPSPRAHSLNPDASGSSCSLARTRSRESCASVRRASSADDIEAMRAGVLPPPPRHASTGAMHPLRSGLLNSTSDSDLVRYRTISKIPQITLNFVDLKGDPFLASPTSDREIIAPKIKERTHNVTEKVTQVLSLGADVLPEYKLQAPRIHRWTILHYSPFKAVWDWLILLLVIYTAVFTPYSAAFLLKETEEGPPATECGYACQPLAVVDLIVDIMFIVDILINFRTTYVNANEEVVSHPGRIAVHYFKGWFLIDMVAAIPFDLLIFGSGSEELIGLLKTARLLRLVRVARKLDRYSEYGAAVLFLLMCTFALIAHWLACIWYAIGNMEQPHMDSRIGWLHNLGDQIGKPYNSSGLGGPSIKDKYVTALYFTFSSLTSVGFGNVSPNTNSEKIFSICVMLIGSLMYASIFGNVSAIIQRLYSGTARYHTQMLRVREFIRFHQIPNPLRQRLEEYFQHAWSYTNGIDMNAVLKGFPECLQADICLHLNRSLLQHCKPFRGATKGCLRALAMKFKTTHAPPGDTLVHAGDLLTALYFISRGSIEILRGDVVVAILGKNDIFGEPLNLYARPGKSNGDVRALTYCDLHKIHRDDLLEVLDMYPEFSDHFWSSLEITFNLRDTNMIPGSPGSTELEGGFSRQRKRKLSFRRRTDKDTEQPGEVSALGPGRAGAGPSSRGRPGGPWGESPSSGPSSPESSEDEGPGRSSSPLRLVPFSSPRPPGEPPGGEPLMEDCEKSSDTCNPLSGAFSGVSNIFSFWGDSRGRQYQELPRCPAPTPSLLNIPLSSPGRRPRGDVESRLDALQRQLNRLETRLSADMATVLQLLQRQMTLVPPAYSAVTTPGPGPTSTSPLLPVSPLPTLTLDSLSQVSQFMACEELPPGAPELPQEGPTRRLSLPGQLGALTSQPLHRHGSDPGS
Experimental: Kv11.1 (hERG) Ion Channel Activity
In this assay, a potential in vitro effect of test compounds on the Kv11.1 (hERG) ion channel current is investigated which mediates the rapidly activating, delayed rectifier cardiac potassium current (IKr). The assay is performed with a stable Kv11.1 (hERG) transfected human embryonic kidney cell line (HEK293) by whole cell patch clamp technique carried out at room temperature.
The Kv11.1 (hERG) ion channel blocker quinidine is used as reference compound. The effects of the test compounds and quinidine are normalized to the corresponding vehicle control. The whole cell recordings are carried out with an automated patch clamp device Patchliner™, Nanion Technologies, Munich). Hereby the Patch Clamp measurements run on silicate-coated chips with a hole of a defined diameter. Solutions, cell suspension and compounds are applied by a Teflon-laminated pipette needle through microfluidic silicate-laminated channels. Commercial patch clamp amplifiers (EPC10, HEKA Elektronik Dr. Schulze GmbH, Germany) are used for the patch clamp recordings. HEK293 cells stably expressing the hERG gene are held at −80 mV. Steady-state inhibition of Kv11.1 (hERG) potassium current due to test/reference compound application is measured using a pulse pattern with fixed amplitudes: 51 ms/−80 mV, 500 ms/+40 mV, 500 ms/−40 mV, 200 ms/−80 mV. The hERG-specific voltage protocol is repeated at 10 s intervals. The leak current is subtracted by a P4 leak subtraction. Cells are resuspended in extracellular patch clamp solution (EC) and applied into the chip. After trapping the cell, the EC is exchanged by seal enhancer solution (SE) to improve the sealing procedure. When the whole cell configuration is attained, seal enhancer is washed out by the application of EC. The recording is started in EC for 1.5 min. Afterwards DMSO (vehicle control, 0.1% DMSO) is applied and the control current is measured for 3 min. Following control steady-state current, test compound is applied twice at the same concentration and the tail current is measured for 3.5 min each. For the determination of a concentration-relationship, the test compound is applied as a cumulative concentration-response curve and each concentration is measured for 5 min. The reference compound quinidine is treated in the same way. The effect on Kv11.1 (hERG) ion channel activity is judged from the tail current amplitude monitored at −40 mV (current of interest, COI). Results are calculated from the last recorded current traces. Changes in Kv11.1 (hERG) ion channel activity between control value, defined as 100% Kv11.1 (hERG) ion channel activity, application of test compound and application of quinidine is reported as percent change of control value of COI. An aliquot of test compound is collected for concentration verification during the recording. The sample is immediately measured by HPLC and the final compound concentration within the assay is calculated according to a calibration curve.

Chain of ATR/ATRIP (Q13535 whole entry): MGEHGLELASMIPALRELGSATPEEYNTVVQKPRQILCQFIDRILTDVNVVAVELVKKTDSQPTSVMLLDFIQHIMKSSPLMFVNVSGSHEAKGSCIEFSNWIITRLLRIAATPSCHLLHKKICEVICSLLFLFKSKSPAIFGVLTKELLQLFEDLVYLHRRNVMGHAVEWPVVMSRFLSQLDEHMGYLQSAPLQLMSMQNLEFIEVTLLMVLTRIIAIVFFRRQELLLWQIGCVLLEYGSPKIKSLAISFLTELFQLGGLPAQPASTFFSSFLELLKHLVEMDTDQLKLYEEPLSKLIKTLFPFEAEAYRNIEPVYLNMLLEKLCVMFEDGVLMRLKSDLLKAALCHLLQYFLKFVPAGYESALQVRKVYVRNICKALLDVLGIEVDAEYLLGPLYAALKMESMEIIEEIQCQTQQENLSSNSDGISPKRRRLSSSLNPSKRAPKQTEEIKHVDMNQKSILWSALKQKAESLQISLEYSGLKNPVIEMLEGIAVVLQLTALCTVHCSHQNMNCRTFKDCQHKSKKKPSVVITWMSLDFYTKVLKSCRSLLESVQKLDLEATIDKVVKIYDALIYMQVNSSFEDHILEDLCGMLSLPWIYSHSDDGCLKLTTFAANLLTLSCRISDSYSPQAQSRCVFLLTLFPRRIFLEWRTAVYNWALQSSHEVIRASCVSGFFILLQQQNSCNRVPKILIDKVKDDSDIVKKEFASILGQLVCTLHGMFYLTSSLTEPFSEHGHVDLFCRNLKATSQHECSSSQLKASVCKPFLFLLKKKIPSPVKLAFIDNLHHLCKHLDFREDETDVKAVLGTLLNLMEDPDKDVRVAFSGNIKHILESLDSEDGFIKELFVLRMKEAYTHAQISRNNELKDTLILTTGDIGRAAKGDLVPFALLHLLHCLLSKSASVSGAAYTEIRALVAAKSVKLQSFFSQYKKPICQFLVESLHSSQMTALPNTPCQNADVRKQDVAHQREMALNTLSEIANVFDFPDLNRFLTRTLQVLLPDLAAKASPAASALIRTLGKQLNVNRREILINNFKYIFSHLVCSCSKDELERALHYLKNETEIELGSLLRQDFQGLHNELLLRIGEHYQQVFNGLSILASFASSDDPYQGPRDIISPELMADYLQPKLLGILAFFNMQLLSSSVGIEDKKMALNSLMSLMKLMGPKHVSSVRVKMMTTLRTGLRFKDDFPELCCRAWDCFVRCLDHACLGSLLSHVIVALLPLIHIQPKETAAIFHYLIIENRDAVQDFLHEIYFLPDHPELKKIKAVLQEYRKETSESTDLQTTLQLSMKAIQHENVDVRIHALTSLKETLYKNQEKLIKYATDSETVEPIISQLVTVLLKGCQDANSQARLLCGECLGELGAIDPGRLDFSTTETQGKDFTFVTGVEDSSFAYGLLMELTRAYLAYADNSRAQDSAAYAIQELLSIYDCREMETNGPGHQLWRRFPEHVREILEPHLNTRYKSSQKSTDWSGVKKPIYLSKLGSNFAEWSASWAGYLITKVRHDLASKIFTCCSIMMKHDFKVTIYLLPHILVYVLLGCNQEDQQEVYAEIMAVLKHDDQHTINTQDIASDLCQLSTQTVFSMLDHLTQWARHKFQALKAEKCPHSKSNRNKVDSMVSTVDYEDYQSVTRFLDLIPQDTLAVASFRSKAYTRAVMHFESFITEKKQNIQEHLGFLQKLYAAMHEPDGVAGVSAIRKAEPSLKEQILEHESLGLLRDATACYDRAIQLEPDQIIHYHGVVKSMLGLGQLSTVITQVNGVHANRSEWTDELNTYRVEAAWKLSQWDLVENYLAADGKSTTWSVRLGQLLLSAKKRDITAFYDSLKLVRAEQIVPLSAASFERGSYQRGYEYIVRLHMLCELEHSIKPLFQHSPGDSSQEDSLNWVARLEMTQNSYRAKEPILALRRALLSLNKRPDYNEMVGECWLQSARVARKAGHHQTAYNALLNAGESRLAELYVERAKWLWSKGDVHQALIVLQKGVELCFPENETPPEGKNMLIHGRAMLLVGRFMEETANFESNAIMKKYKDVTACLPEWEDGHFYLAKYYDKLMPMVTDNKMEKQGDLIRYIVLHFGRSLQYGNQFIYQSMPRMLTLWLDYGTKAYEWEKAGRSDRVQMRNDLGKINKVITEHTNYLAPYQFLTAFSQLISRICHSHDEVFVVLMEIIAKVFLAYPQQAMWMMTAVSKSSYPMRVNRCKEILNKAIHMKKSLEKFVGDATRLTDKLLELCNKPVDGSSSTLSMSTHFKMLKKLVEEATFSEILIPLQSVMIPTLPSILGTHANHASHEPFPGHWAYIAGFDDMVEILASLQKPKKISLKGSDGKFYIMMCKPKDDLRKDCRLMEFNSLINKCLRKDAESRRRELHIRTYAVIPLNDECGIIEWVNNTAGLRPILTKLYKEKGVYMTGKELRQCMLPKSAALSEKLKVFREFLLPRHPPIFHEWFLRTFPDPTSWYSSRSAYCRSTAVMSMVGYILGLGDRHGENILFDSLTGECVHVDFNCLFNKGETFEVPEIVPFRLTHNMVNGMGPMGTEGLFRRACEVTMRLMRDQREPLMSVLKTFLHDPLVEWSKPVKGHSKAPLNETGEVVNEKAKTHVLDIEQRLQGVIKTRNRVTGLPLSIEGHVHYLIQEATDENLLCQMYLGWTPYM
Chain of ATR/ATRIP (Q8WXE1 whole entry partner): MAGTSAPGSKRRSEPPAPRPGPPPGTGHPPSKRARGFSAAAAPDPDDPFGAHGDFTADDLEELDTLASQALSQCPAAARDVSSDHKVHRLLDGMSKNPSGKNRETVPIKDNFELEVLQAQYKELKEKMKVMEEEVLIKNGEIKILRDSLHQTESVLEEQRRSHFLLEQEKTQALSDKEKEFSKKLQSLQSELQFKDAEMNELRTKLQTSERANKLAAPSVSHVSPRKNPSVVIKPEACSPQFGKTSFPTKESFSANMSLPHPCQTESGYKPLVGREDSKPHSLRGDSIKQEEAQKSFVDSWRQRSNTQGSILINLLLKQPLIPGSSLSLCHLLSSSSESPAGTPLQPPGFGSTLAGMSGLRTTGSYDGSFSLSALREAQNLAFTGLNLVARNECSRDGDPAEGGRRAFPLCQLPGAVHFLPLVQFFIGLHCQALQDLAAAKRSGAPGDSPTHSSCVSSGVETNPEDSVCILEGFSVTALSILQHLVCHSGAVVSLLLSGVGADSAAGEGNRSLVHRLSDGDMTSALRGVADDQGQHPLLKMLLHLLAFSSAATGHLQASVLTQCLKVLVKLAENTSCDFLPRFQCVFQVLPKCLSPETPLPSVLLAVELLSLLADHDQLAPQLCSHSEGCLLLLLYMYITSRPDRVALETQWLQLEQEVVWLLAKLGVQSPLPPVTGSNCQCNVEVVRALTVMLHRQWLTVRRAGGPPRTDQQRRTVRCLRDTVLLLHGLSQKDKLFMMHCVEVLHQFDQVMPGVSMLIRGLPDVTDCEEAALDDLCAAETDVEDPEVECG

SMILES | IC50 (ATR/ATRIP) [nM] | IC50 [1] [nM] | hERG % effect @ conc ([2]; @ 10 μM) [%] | Ki [2] [nM] | hERG % effect @ conc ([2]; @ 30 μM) [%]
C[C@@H]1COCCN1c1cc(C2CCOCC2)c2c(n1)c(-c1ccn[nH]1)nn2C [Compound 55, 1-Methyl-5-((R)-3-methyl-morpholin-4-yl)-3-(2H-pyrazol-3-yl)-7-(tetrahydro-pyran-4-yl)-1H-pyrazolo[4,3-b]pyridine] | 0.7 | 10 to 100 | −14 | > 10000 | –
C[C@@H]1COCCN1c1cc([C@H]2CCCOC2)c2c(n1)c(-c1ccn[nH]1)nn2C [Compound 68, 1-Methyl-5-((R)-3-methyl-morpholin-4-yl)-3-(2H-pyrazol-3-yl)-7-(R)-tetrahydro-pyran-3-yl-1H-pyrazolo[4,3-b]pyridine] | – | 10 to 100 | – | > 30000 | −35
C[C@@H]1COCCN1c1cc(-c2ccc([S+](C)[O-])cc2)c2c(n1)c(-c1cc[nH]n1)nn2C (stereo partly drawn) [Compound 5, 7-(4-Methanesulfinyl-phenyl)-1-methyl-5-((R)-3-methyl-morpholin-4-yl)-3-(1H-pyrazol-3-yl)-1H-pyrazolo[4,3-b]pyridine] | 3.5 | 10 to 100 | −22 | > 10000 | –
C[C@@H]1COCCN1c1ccc2c(n1)c(-c1ccn[nH]1)nn2C [Compound 40, (3R)-3-Methyl-4-[1-methyl-3-(1H-pyrazol-5-yl)-1H-pyrazolo[4,3-b]pyridin-5-yl]morpholine] | 50.6 | 100 to 1000 | 9 | > 10000 | –
Cc1ccc(-c2cc(N3CCOC[C@H]3C)nc3c(-c4cc[nH]n4)n[nH]c23)cn1 [Compound 2, 5-((R)-3-Methyl-morpholin-4-yl)-7-(6-methyl-pyridin-3-yl)-3-(1H-pyrazol-3-yl)-1H-pyrazolo[4,3-b]pyridine] | 0.8 | 10 to 100 | −3 | > 10000 | –
C[C@@H]1COCCN1c1cc(-c2ccnn2CCF)c2c(n1)c(-c1cc[nH]n1)nn2C [Compound 36, 7-[2-(2-Fluoro-ethyl)-2H-pyrazol-3-yl]-1-methyl-5-((R)-3-methyl-morpholin-4-yl)-3-(1H-pyrazol-3-yl)-1H-pyrazolo[4,3-b]pyridine] | 0.6 | 10 to 100 | −9 | > 10000 | –
Cc1ccc(-c2cc(N3CCOC[C@H]3C)nc3c(-c4cc[nH]n4)nn(C)c23)cn1 [Compound 1, 1-Methyl-5-((R)-3-methyl-morpholin-4-yl)-7-(6-methyl-pyridin-3-yl)-3-(1H-pyrazol-3-yl)-1H-pyrazolo[4,3-b]pyridine] | 2.3 | 10 to 100 | – | > 30000 | −28
C[C@@H]1COCCN1c1cc(-c2ccc(S(C)(=O)=O)cc2)c2c(n1)c(-c1cc[nH]n1)nn2C [Compound 7, 7-(4-Methanesulfonyl-phenyl)-1-methyl-5-((R)-3-methyl-morpholin-4-yl)-3-(1H-pyrazol-3-yl)-1H-pyrazolo[4,3-b]pyridine] | 2.3 | 10 to 100 | −16 | > 10000 | –
C[C@@H]1COCCN1c1cc(-c2ccn(CCF)n2)c2c(n1)c(-c1cc[nH]n1)nn2C [Compound 34, 7-[1-(2-Fluoro-ethyl)-1H-pyrazol-3-yl]-1-methyl-5-((R)-3-methyl-morpholin-4-yl)-3-(1H-pyrazol-3-yl)-1H-pyrazolo[4,3-b]pyridine] | 6.1 | 10 to 100 | −1 | > 10000 | –
C[C@@H]1COCCN1c1cc(-c2ccnn2C(F)F)c2c(n1)c(-c1ccn[nH]1)nn2C [Compound 78, (3R)-4-{7-[1-(Difluoromethyl)-1H-pyrazol-5-yl]-1-methyl-3-(1H-pyrazol-5-yl)-1H-pyrazolo[4,3-b]pyridin-5-yl}-3-methylmorpholine] | – | 10 to 100 | – | > 30000 | −12
C[C@@H]1COCCN1c1cc(-c2ccnn2C)c2c(n1)c(-c1cc[nH]n1)nn2C [Compound 61, (3R)-3-Methyl-4-[1-methyl-7-(1-methyl-1H-pyrazol-5-yl)-3-(1H-pyrazol-3-yl)-1H-pyrazolo[4,3-b]pyridin-5-yl]morpholine] | 0.6 | 10 to 100 | – | > 30000 | −12
C[C@@H]1COCCN1c1cc(-c2ccncc2F)c2c(n1)c(-c1cc[nH]n1)nn2C [Compound 20, 7-(3-Fluoro-pyridin-4-yl)-1-methyl-5-((R)-3-methyl-morpholin-4-yl)-3-(1H-pyrazol-3-yl)-1H-pyrazolo[4,3-b]pyridine] | 1.2 | 10 to 100 | −11 | > 10000 | –
Cc1nc(S(C)(=O)=O)ccc1-c1cc(N2CCOC[C@H]2C)nc2c(-c3cc[nH]n3)nn(C)c12 [Compound 11, (3R)-4-[7-(6-Methanesulfonyl-2-methylpyridin-3-yl)-1-methyl-3-(1H-pyrazol-3-yl)-1H-pyrazolo[4,3-b]pyridin-5-yl]-3-methylmorpholine] | 0.9 | 10 to 100 | −5 | > 10000 | –
C[C@@H]1COCCN1c1cc([C@@H]2CCOC2)c2c(n1)c(-c1ccn[nH]1)nn2C [Compound 71, 1-Methyl-5-((R)-3-methyl-morpholin-4-yl)-3-(2H-pyrazol-3-yl)-7-(S)-tetrahydro-furan-3-yl-1H-pyrazolo[4,3-b]pyridine] | – | 10 to 100 | −16 | > 10000 | –
C[C@@H]1COCCN1c1cc(C(C)(C)O)c2c(n1)c(-c1cc[nH]n1)nn2C [Compound 25, 2-[1-Methyl-5-((R)-3-methyl-morpholin-4-yl)-3-(1H-pyrazol-3-yl)-1H-pyrazolo[4,3-b]pyridin-7-yl]-propan-2-ol] | 4.3 | 10 to 100 | −1 | > 10000 | –
Cc1ncccc1-c1cc(N2CCOC[C@H]2C)nc2c(-c3cc[nH]n3)nn(C)c12 [Compound 4, 1-Methyl-5-((R)-3-methyl-morpholin-4-yl)-7-(2-methyl-pyridin-3-yl)-3-(1H-pyrazol-3-yl)-1H-pyrazolo[4,3-b]pyridine] | 0.8 | 10 to 100 | −12 | > 10000 | –
C[C@@H]1COCCN1c1cc(-c2cccc(C#N)c2)c2c(n1)c(-c1cc[nH]n1)nn2C [Compound 48, 3-{1-Methyl-5-[(3R)-3-methylmorpholin-4-yl]-3-(1H-pyrazol-3-yl)-1H-pyrazolo[4,3-b]pyridin-7-yl}benzonitrile] | 2 | 10 to 100 | −32 | > 10000 | –
C[C@@H]1COCCN1c1cc(C2(S(C)(=O)=O)CC2)c2c(n1)c(-c1cc[nH]n1)nn2C [Compound 26, 7-(1-Methanesulfonyl-cyclopropyl)-1-methyl-5-((R)-3-methyl-morpholin-4-yl)-3-(1H-pyrazol-3-yl)-1H-pyrazolo[4,3-b]pyridine] | 0.8 | 10 to 100 | – | > 30000 | −24
C[C@@H]1COCCN1c1cc([C@@H]2CCCOC2)c2c(n1)c(-c1ccn[nH]1)nn2C [Compound 69, 1-Methyl-5-((R)-3-methyl-morpholin-4-yl)-3-(2H-pyrazol-3-yl)-7-(S)-tetrahydro-pyran-3-yl-1H-pyrazolo[4,3-b]pyridine] | – | 10 to 100 | – | > 30000 | −29
